Data taken from the supplement of paper PMC13207355.

Assays:
Settings in all cases: exposure time: 72 h
E57 [1] = patient-derived glioblastoma stem cells of mesenchymal subtype; assay: surviving fraction (nuclei count normalised to DMSO); higher = more cells surviving (less toxic)
FT3469 [2] = normal neural stem cell line; assay: as above
E34 [3] = patient-derived glioblastoma stem cells of proneural subtype; assay: as above
E28 [4] = patient-derived glioblastoma stem cells of classical subtype; assay: as above
E13 [5] = patient-derived glioblastoma stem cells of classical subtype; assay: as above
E21 [6] = patient-derived glioblastoma stem cells of mesenchymal subtype; assay: as above
E31 [7] = patient-derived glioblastoma stem cells of proneural subtype; assay: as above
E57 [8] = assay: phenotypic distance (Euclidean, principal components) from DMSO controls (arbitrary units); higher = stronger morphological change
FT3469 [9] = assay: as above
E34 [10] = assay: as above
E28 [11] = assay: as above
E13 [12] = assay: as above
E21 [13] = assay: as above
E31 [14] = assay: as above
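Wherever phenotypic distance (Euclidean, principal components) from DMSO controls is given: cell Painting imaging in 384-well plates, CellProfiler features reduced to at least 20 principal components, Euclidean distance versus same-plate DMSO vehicle wells (0.1% v/v), median over six images per well.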
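Wherever surviving fraction (nuclei count normalised to DMSO) is given: nuclei counted by high-content imaging of Hoechst-stained cells in laminin-coated 384-well plates, relative to 0.1% DMSO vehicle wells, with staurosporine as cell-death control.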

COc1ccc2c(c1)CC[C@@H]1[C@@H]2CC[C@]2(C)[C@@H](NCCCCCCN3C(=O)CCC3=O)CC[C@@H]12
Settings	phenotypic distance	surviving fraction
E13 [5], 4.1 nM	–	0.826
E13 [5], 12.3 nM	–	0.95
E13 [5], 37 nM	–	0.876
E13 [5], 111.1 nM	–	0.929
E13 [5], 333.3 nM	–	0.981
E13 [5], 1000 nM	–	0.804
E13 [5], 3000 nM	–	0.52
E13 [12], 4.1 nM	1.07	–
E13 [12], 12.3 nM	0.714	–
E13 [12], 37 nM	0.93	–
E13 [12], 111.1 nM	1.11	–
E13 [12], 333.3 nM	1.31	–
E13 [12], 1000 nM	2.29	–
E13 [12], 3000 nM	3.72	–
E21 [6], 4.1 nM	–	1.03
E21 [6], 12.3 nM	–	0.961
E21 [6], 37 nM	–	0.951
E21 [6], 111.1 nM	–	1.13
E21 [6], 333.3 nM	–	1.06
E21 [6], 1000 nM	–	0.867
E21 [6], 3000 nM	–	0.645
E21 [13], 4.1 nM	0.642	–
E21 [13], 12.3 nM	0.74	–
E21 [13], 37 nM	0.741	–
E21 [13], 111.1 nM	0.893	–
E21 [13], 333.3 nM	0.934	–
E21 [13], 1000 nM	1.42	–
E21 [13], 3000 nM	4.65	–
E28 [4], 4.1 nM	–	1.09
E28 [4], 12.3 nM	–	1.03
E28 [4], 37 nM	–	1.03
E28 [4], 111.1 nM	–	1.09
E28 [4], 333.3 nM	–	1.1
E28 [4], 1000 nM	–	1.01
E28 [4], 3000 nM	–	0.973
E28 [11], 4.1 nM	0.61	–
E28 [11], 12.3 nM	0.49	–
E28 [11], 37 nM	0.46	–
E28 [11], 111.1 nM	0.724	–
E28 [11], 333.3 nM	0.645	–
E28 [11], 1000 nM	0.805	–
E28 [11], 3000 nM	2.44	–
E31 [7], 4.1 nM	–	0.965
E31 [7], 12.3 nM	–	1.14
E31 [7], 37 nM	–	0.985
E31 [7], 111.1 nM	–	1.05
E31 [7], 333.3 nM	–	1.06
E31 [7], 1000 nM	–	0.962
E31 [7], 3000 nM	–	0.624
E31 [14], 4.1 nM	0.697	–
E31 [14], 12.3 nM	0.31	–
E31 [14], 37 nM	0.566	–
E31 [14], 111.1 nM	0.735	–
E31 [14], 333.3 nM	1.61	–
E31 [14], 1000 nM	2.54	–
E31 [14], 3000 nM	6.23	–
E34 [3], 4.1 nM	–	0.876
E34 [3], 12.3 nM	–	0.901
E34 [3], 37 nM	–	1.13
E34 [3], 111.1 nM	–	0.957
E34 [3], 333.3 nM	–	0.939
E34 [3], 1000 nM	–	0.979
E34 [3], 3000 nM	–	0.986
E34 [10], 4.1 nM	1.13	–
E34 [10], 12.3 nM	0.657	–
E34 [10], 37 nM	0.637	–
E34 [10], 111.1 nM	0.671	–
E34 [10], 333.3 nM	0.968	–
E34 [10], 1000 nM	1.06	–
E34 [10], 3000 nM	0.95	–
E57 [1], 4.1 nM	–	1.11
E57 [1], 12.3 nM	–	1.04
E57 [1], 37 nM	–	1.13
E57 [1], 111.1 nM	–	1.13
E57 [1], 333.3 nM	–	1.17
E57 [1], 1000 nM	–	1.11
E57 [1], 3000 nM	–	0.936
E57 [8], 4.1 nM	3.52	–
E57 [8], 12.3 nM	0.302	–
E57 [8], 37 nM	0.424	–
E57 [8], 111.1 nM	0.621	–
E57 [8], 333.3 nM	1.22	–
E57 [8], 1000 nM	1.78	–
E57 [8], 3000 nM	2.68	–
FT3469 [2], 4.1 nM	–	0.984
FT3469 [2], 12.3 nM	–	1.11
FT3469 [2], 37 nM	–	1.03
FT3469 [2], 111.1 nM	–	1.11
FT3469 [2], 333.3 nM	–	1.06
FT3469 [2], 1000 nM	–	0.922
FT3469 [2], 3000 nM	–	0.983
FT3469 [9], 4.1 nM	0.686	–
FT3469 [9], 12.3 nM	0.245	–
FT3469 [9], 37 nM	0.58	–
FT3469 [9], 111.1 nM	0.496	–
FT3469 [9], 333.3 nM	0.408	–
FT3469 [9], 1000 nM	0.646	–
FT3469 [9], 3000 nM	0.711	–
